According to paper PMC7587356, “High-Throughput Screening for Inhibitors of the SARS-CoV-2 Protease Using a FRET-Biosensor” (Molecules, 2020):
Structures can show the parent of a compound that is named as a salt. Where two headings read alike, the source gives them in different places.

Biological target: SARS-CoV-2 3CLpro (Severe acute respiratory syndrome coronavirus 2, UniProt P0DTD1)
Experiment: biochemical
Format: biochemical
Parameters: Replicate_1 / Replicate_2 / mean / mean (LOPAC_screen_w_protease): unit not given here
Conditions: for inhibition at 5 µM: 4 h
[1] = sheet LOPAC_screen_w_protease, primary screen with protease, mean of two replicates
[2] = sheet LOPAC_screen_w_protease, primary screen with protease, replicate 1
[3] = sheet LOPAC_screen_w_protease, primary screen with protease, replicate 2
[4] = sheet LOPAC_screen_w_protease, LOPAC1280 at 5 µM, mean of two replicates, read-out: mean
[5] = sheet LOPAC_screen_w_protease, LOPAC1280 at 5 µM, replicate 1, read-out: Replicate_1
[6] = sheet LOPAC_screen_w_protease, LOPAC1280 at 5 µM, replicate 2, read-out: Replicate_2
[7] = sheet LOPAC_screen_w_protease, LOPAC1280 primary screen with protease, 5 µM compound, mean of the two replicates
[8] = sheet LOPAC_screen_w_protease, LOPAC1280 primary screen with protease, 5 µM compound, replicate 1
[9] = sheet LOPAC_screen_w_protease, LOPAC1280 primary screen with protease, 5 µM compound, replicate 2
[10] = sheet LOPAC_screen_w_protease, primary screen with protease, 5 µM, mean of two replicates
[11] = sheet LOPAC_screen_w_protease, primary screen with protease, 5 µM, replicate 1
[12] = sheet LOPAC_screen_w_protease, primary screen with protease, 5 µM, replicate 2
[13] = sheet LOPAC_screen_w_protease, LOPAC1280 primary screen at 5 µM, with protease, mean of the two replicates, read-out: mean
[14] = sheet LOPAC_screen_w_protease, LOPAC1280 primary screen at 5 µM, with protease, replicate 1, read-out: Replicate_1
[15] = sheet LOPAC_screen_w_protease, LOPAC1280 primary screen at 5 µM, with protease, replicate 2, read-out: Replicate_2
[16] = LOPAC1280 primary screen with protease, 5 µM compound, replicate 1, read-out: Replicate_1 (LOPAC_screen_w_protease)
[17] = LOPAC1280 primary screen with protease, 5 µM compound, replicate 2, read-out: Replicate_2 (LOPAC_screen_w_protease)
[18] = LOPAC1280 primary screen with protease, 5 µM compound, mean of two replicates
[19] = sheet LOPAC_screen_w_protease, LOPAC1280 primary screen at 5 µM, with protease, mean of two replicates
[20] = sheet LOPAC_screen_w_protease, LOPAC1280 primary screen at 5 µM, with protease, replicate 1
[21] = sheet LOPAC_screen_w_protease, LOPAC1280 primary screen at 5 µM, with protease, replicate 2
[22] = sheet LOPAC_screen_w_protease, primary screen with protease, compound at 5 µM, mean of two replicates, read-out: mean
[23] = sheet LOPAC_screen_w_protease, primary screen with protease, compound at 5 µM, replicate 1, read-out: Replicate_1
[24] = sheet LOPAC_screen_w_protease, primary screen with protease, compound at 5 µM, replicate 2, read-out: Replicate_2
[25] = sheet LOPAC_screen_w_protease, LOPAC1280 primary screen at 5 µM, with protease, mean of the two replicates

SMILES: N#CC(C#N)=C(N)/C(C#N)=C/c1ccc(O)cc1 [Tyrphostin AG 112]
- mean [1]: 2.497
- Replicate_1 [2]: 2.949
- Replicate_2 [3]: 2.046

SMILES: Cc1cn(C2CC(N=[N+]=[N-])C(CO)O2)c(=O)[nH]c1=O (stereo not drawn) [3'-Azido-3'-deoxythymidine]
- inhibition at 5 µM [4]: 1.04%
- inhibition at 5 µM [5]: 1.75%
- inhibition at 5 µM [6]: 0.327%

SMILES: CCCN1CCC[C@@H]2Cc3nc(N)ncc3C[C@H]21.Cl.Cl [Quinelorane dihydrochloride]
- mean [7]: 6.182
- Replicate_1 [8]: 6.527
- Replicate_2 [9]: 5.838

SMILES: C/C(=C\c1ccc(C(=O)O)cc1)c1ccc2c(c1)C(C)(C)CCC2(C)C [TTNPB]
- mean (sheet LOPAC_screen_w_protease, primary screen of LOPAC1280 at 5 µM with protease, mean of the two replicates): 3.657
- Replicate_1 (sheet LOPAC_screen_w_protease, primary screen of LOPAC1280 at 5 µM with protease, replicate 1): 5.544
- Replicate_2 (sheet LOPAC_screen_w_protease, primary screen of LOPAC1280 at 5 µM with protease, replicate 2): 1.7694

SMILES: CN1C2CCC1CC(OC(c1ccccc1)c1ccc(Cl)cc1)C2.Cl (stereo not drawn)
- Replicate_1 (LOPAC_screen_w_protease): 2.149
- Replicate_2 (LOPAC_screen_w_protease): 0.9226
- mean (LOPAC_screen_w_protease): 1.536

SMILES: CCCC(=O)NCCc1c2n(c3ccc(OC)cc13)CCCc1ccccc1-2 [K 185]
- mean [1]: 2.196
- Replicate_1 [2]: 2.886
- Replicate_2 [3]: 1.507

SMILES: Cc1ccc(/C(=C\CN2CCCC2)c2ccccn2)cc1.Cl [Triprolidine hydrochloride]
- mean [10]: 0.01953
- Replicate_1 [11]: 0.1702
- Replicate_2 [12]: -0.1311

SMILES: CC1(C)NC(=O)N(c2ccc([N+](=O)[O-])c(C(F)(F)F)c2)C1=O [Nilutamide]
- inhibition at 5 µM [13]: 0.761%
- inhibition at 5 µM [14]: 2.22%
- inhibition at 5 µM [15]: -0.697%

SMILES: Clc1ccc(N2C[C@H]3CC[C@@H](C2)N3)nn1 [DBO-83]
- mean [7]: 6.059
- Replicate_1 [8]: 7.536
- Replicate_2 [9]: 4.581

SMILES: O=c1[nH]c2cc(Cl)c(Cl)cc2[nH]c1=O [6,7-Dichloroquinoxaline-2,3-dione]
- mean [7]: 4.331
- Replicate_1 [8]: 5.455
- Replicate_2 [9]: 3.207

SMILES: COc1ccccc1N1CCN(CCCCNC(=O)c2ccc3ccccc3c2)CC1 [BP 897]
- inhibition at 5 µM [16]: 0.668%
- inhibition at 5 µM [17]: 1.98%
- mean (LOPAC_screen_w_protease) [18]: 1.323

SMILES: C=C(C)[C@H]1CC=C(C(=O)O)CC1 [(-)-Perillic acid]
- mean [10]: -0.8057
- Replicate_1 [11]: 1.127
- Replicate_2 [12]: -2.738

SMILES: C#CCN1C(C)=C(C(=O)OC)C(c2cccc([N+](=O)[O-])c2)C(C(=O)OCC)=C1C (stereo not drawn) [MRS 1845]
- mean [7]: 4.379
- Replicate_1 [8]: 3.994
- Replicate_2 [9]: 4.765

SMILES: CO/N=C(\C(=O)N[C@@H]1C(=O)N2C(C(=O)O)=C(COC(C)=O)CS[C@H]12)c1csc(N)n1 [Cefotaxime sodium]
- inhibition at 5 µM (sheet LOPAC_screen_w_protease, primary screen with protease, mean of two replicates, read-out: mean): 2.42%
- inhibition at 5 µM (sheet LOPAC_screen_w_protease, primary screen with protease, replicate 1, read-out: Replicate_1): 1.54%
- inhibition at 5 µM (sheet LOPAC_screen_w_protease, primary screen with protease, replicate 2, read-out: Replicate_2): 3.3%

SMILES: Nc1ccc(CCN2CCN(c3cccc(C(F)(F)F)c3)CC2)cc1 [PAPP]
- mean [19]: -1.528
- Replicate_1 [20]: -1.095
- Replicate_2 [21]: -1.96

SMILES: N=C(N)NC(=O)Cc1c(Cl)cccc1Cl [Guanfacine hydrochloride]
- inhibition at 5 µM [22]: 2.62%
- inhibition at 5 µM [23]: 3.74%
- inhibition at 5 µM [24]: 1.51%

SMILES: Cl.O=C(OC1CCN(CCCl)CC1)C(c1ccccc1)c1ccccc1
- mean [1]: 2.3143
- Replicate_1 [2]: 3.423
- Replicate_2 [3]: 1.205

SMILES: OC1(c2ccc(Cl)cc2)CCN(Cc2c[nH]c3ccccc23)CC1 [L-741,626]
- mean [7]: 4.28
- Replicate_1 [8]: 4.691
- Replicate_2 [9]: 3.869

SMILES: CN(C)C(N)=NCCC[C@H](N)C(=O)O.Cl [N^G,N^G-Dimethylarginine hydrochloride]
- mean (sheet LOPAC_screen_w_protease, LOPAC1280 at 5 µM, mean of two replicates): 0.9307
- Replicate_1 (sheet LOPAC_screen_w_protease, LOPAC1280 at 5 µM, replicate 1): 2.142
- Replicate_2 (sheet LOPAC_screen_w_protease, LOPAC1280 at 5 µM, replicate 2): -0.2808

SMILES: COc1ccc2[nH]c3c(c2c1)CCNC3
- mean [25]: 0.4216
- Replicate_1 [20]: 0.4542
- Replicate_2 [21]: 0.3889

SMILES: CC#CCOC(=O)c1c(C)nc2sc3c(c2c1N)CCC(O)C3 (stereo not drawn) [SB 205384]
- mean [19]: -1.612
- Replicate_1 [20]: 2.126
- Replicate_2 [21]: -5.349

SMILES: CCCCCCN(CCCCCC)C(=O)Cc1c(-c2ccc(F)cc2)[nH]c2ccccc12
- mean [7]: 4.628
- Replicate_1 [8]: 5.9351
- Replicate_2 [9]: 3.32

SMILES: N#CC(C#N)=Cc1ccc([N+](=O)[O-])c(O)c1 [Tyrphostin AG 126]
- mean [1]: 2.288
- Replicate_1 [2]: 2.273
- Replicate_2 [3]: 2.303

SMILES: COc1[nH]c2ccc(F)cc2c1C(=O)OCC1CCN(CCNS(C)(=O)=O)CC1.NS(=O)(=O)O [GR 125487 sulfamate salt]
- mean [25]: 0.6171
- Replicate_1 [20]: 2.002
- Replicate_2 [21]: -0.7681

SMILES: CC(C)C[C@H](NP(=O)([O-])O[C@H]1O[C@H](C)[C@@H](O)[C@H](O)[C@@H]1O)C(=O)N[C@@H](Cc1c[nH]c2ccccc12)C(=O)[O-].[Na+].[Na+] [Phosphoramidon disodium]
- mean [10]: 0.1697
- Replicate_1 [11]: 0.5227
- Replicate_2 [12]: -0.1832

SMILES: Nc1nc(O)c2ncn(COC(CO)CO)c2n1 [Ganciclovir]
- inhibition at 5 µM [13]: 0.74%
- inhibition at 5 µM [14]: 1%
- inhibition at 5 µM [15]: 0.479%

SMILES: CCC(C)N(C)C(=O)c1cc2ccccc2c(-c2ccccc2Cl)n1 (stereo not drawn) [PK 11195]
- inhibition at 5 µM [22]: 3.14%
- inhibition at 5 µM [23]: 1.87%
- inhibition at 5 µM [24]: 4.41%

SMILES: C=CCc1ccccc1OCC(O)CNC(C)C (stereo not drawn) [Alprenolol hydrochloride]
- inhibition at 5 µM (sheet LOPAC_screen_w_protease, primary screen with protease, 5 µM, mean of two replicates, read-out: mean): 0.137%
- inhibition at 5 µM (sheet LOPAC_screen_w_protease, primary screen with protease, 5 µM, replicate 1, read-out: Replicate_1): 0.164%
- inhibition at 5 µM (sheet LOPAC_screen_w_protease, primary screen with protease, 5 µM, replicate 2, read-out: Replicate_2): 0.11%

SMILES: Cc1cc(C(C)(C)C)c(O)c(C)c1CC1=NCCN1 [Oxymetazoline hydrochloride]
- inhibition at 5 µM (sheet LOPAC_screen_w_protease, LOPAC1280 primary screen with protease, 5 µM compound, mean of the two replicates, read-out: mean): 5.36%
- inhibition at 5 µM (sheet LOPAC_screen_w_protease, LOPAC1280 primary screen with protease, 5 µM compound, replicate 1, read-out: Replicate_1): 4.63%
- inhibition at 5 µM (sheet LOPAC_screen_w_protease, LOPAC1280 primary screen with protease, 5 µM compound, replicate 2, read-out: Replicate_2): 6.09%

SMILES: CC(C)Cc1ccc([C@H](C)C(=O)O)cc1 [S(+)-Ibuprofen]
- mean (LOPAC_screen_w_protease) [18]: 1.7003
- Replicate_1 (LOPAC_screen_w_protease) (LOPAC1280 primary screen with protease, 5 µM compound, replicate 1): 1.122
- Replicate_2 (LOPAC_screen_w_protease) (LOPAC1280 primary screen with protease, 5 µM compound, replicate 2): 2.279

SMILES: NC(=O)CN1CC(O)CC1=O (stereo not drawn) [Oxiracetam]
- inhibition at 5 µM (sheet LOPAC_screen_w_protease, primary screen of LOPAC1280 at 5 µM with protease, mean of the two replicates, read-out: mean): 3.68%
- inhibition at 5 µM (sheet LOPAC_screen_w_protease, primary screen of LOPAC1280 at 5 µM with protease, replicate 1, read-out: Replicate_1): 3.64%
- inhibition at 5 µM (sheet LOPAC_screen_w_protease, primary screen of LOPAC1280 at 5 µM with protease, replicate 2, read-out: Replicate_2): 3.71%

SMILES: CC(C)(C)NCC(O)c1ccc(O)c(CO)c1 (stereo not drawn) [Salbutamol]
- inhibition at 5 µM [4]: 1.09%
- inhibition at 5 µM [5]: 1.09%
- inhibition at 5 µM [6]: 1.1%

SMILES: CN(C)CCCC1(c2ccc(F)cc2)OCc2cc(C#N)ccc21 (stereo not drawn) [Citalopram hydrobromide]
- inhibition at 5 µM [4]: 1.26%
- inhibition at 5 µM [5]: 1.98%
- inhibition at 5 µM [6]: 0.536%

SMILES: Nc1nc2ccc(OC(F)(F)F)cc2s1 [Riluzole]
- inhibition at 5 µM [16]: 2.44%
- inhibition at 5 µM [17]: 0.68%
- mean (LOPAC_screen_w_protease) [18]: 1.558

SMILES: CCCCCCCCCCCCCC(=O)O[C@@H]1[C@@H](C)[C@@]2(O)[C@@H](C=C(CO)C[C@]3(O)C(=O)C(C)=C[C@@H]23)[C@@H]2C(C)(C)[C@]12OC(C)=O [Phorbol 12-myristate 13-acetate]
- inhibition at 5 µM (read-out: Replicate_1): 1.97%
- inhibition at 5 µM (read-out: Replicate_2): -0.596%
- inhibition at 5 µM (read-out: mean): 0.686%

SMILES: CC(=O)N[C@@H](Cc1c[nH]c2ccccc12)C(=O)OCc1cc(C(F)(F)F)cc(C(F)(F)F)c1 [L-732,138]
- mean [1]: 2.284
- Replicate_1 [2]: 2.97
- Replicate_2 [3]: 1.597
